The EC50 is the concentration that produces a half-maximal response.

The values below come from PubChem BioAssay AID434951 (Broad Institute, 2010).

The structures appear in SMILES notation. Calls of active or inactive are those of the source.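 The calls were made as follows: active = a fitted half-maximal concentration EC50 for the rise in nuclear signal no higher than ten times the top dose tested; inconclusive = flat fit with activity between 30% and 70%, or unusable fit; inactive = EC50 beyond ten times the top dose.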 A value given as a limit tells only on which side of the number the result lay.

Hypoxia-inducible factor 1-alpha (Homo sapiens), sequence (Q16665 whole entry, looked up): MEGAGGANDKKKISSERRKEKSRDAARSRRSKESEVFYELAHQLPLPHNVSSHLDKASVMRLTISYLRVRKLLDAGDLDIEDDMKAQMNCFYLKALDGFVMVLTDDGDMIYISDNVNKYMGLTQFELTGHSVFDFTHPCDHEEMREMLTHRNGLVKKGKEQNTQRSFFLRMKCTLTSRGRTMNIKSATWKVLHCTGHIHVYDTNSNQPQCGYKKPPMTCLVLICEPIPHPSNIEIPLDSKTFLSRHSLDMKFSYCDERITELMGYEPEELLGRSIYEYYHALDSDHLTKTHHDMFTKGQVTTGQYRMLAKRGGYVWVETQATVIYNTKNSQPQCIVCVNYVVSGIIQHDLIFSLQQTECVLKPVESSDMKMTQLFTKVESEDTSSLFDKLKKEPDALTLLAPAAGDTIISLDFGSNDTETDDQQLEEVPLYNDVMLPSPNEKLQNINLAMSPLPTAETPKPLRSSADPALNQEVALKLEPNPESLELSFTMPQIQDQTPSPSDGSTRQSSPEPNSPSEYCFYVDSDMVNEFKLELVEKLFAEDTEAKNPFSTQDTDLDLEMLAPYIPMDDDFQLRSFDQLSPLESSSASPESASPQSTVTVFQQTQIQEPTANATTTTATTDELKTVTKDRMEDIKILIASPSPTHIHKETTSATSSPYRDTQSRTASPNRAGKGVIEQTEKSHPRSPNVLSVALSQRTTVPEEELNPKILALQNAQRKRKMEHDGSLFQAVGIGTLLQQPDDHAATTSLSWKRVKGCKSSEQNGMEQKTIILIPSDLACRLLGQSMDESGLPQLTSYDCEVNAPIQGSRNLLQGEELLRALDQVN

The assay addresses Hypoxia-inducible factor 1-alpha (Homo sapiens) (UniProt Q16665). Put plainly: activators of HIF1alpha nuclear accumulation, confirmation, imaging, fluorescence, U2OS GFP-HIF1alpha (AID 434951). The note with it: U2OS GFP-HIF1alpha nuclear intensity, high-content imaging.
In the case of `Cc1c(C(=O)N2CCCCC2)c(S(=O)(=O)NCCc2ccc(Cl)cc2)c(C)n1C`, the EC50 is > 35 µM (inactive).
Take `Cn1c(NN=O)nc2ccccc21`: the EC50 was 9.61 µM.
`Cc1cccc(CCNC(=O)Cn2ncc3c([nH]c4ccc(C)cc43)c2=O)c1`: the EC50 is > 35 µM (inactive).
For `CCOCCCNC(=S)Nc1cc(C)cc(C)c1`, the EC50 is > 35 µM (inactive).
For the compound `COc1ccc2oc(C(=O)OCC(=O)Nc3ccccc3OC)c(C)c2c1`, the EC50 was > 35 µM (inactive).
As to `O=C(NCCCN1CCOCC1)c1cc(-c2cccs2)on1`, the EC50 was 12.3 µM.
For `O=C1CN(c2ccccc2)C(=O)N1`, the EC50 is > 35 µM (inactive).
With `CCCn1c(SCC(=O)Nc2ccccc2CC)nnc1C(C)C`, the EC50 was > 35 µM (inactive).
Consider `Cn1c(SCC(=O)c2ccccc2)nnc1-c1ccco1`, for which the EC50 is > 35 µM (inactive).
For the compound `COc1cc(C(=O)Nc2sc(C)c(C)c2C(=O)O)cc(OC)c1OC`, the EC50 was > 35 µM (inactive).
Consider `COc1ccc(C(=O)C2CCCN(C(=O)C3CCOCC3)C2)cc1OC` (configuration not stated), for which the EC50 is > 35 µM (inactive).
For the compound `CCC(C)c1ccc2oc(-c3ccc(NC(=O)Cn4cnc5c(=O)n(C)c(=O)n(C)c54)cc3)nc2c1` (configuration not stated), the EC50 was 6.07 µM.
For `Cc1cccc(NC(=O)COc2cccc3c2CCN(C)C3=O)c1C` the value was > 35 µM (inactive); for `CC(C)CC(=O)NC(c1cccs1)c1ccc2cccnc2c1O` (configuration not stated), 6.26 µM.
Take `CCc1nc(N2CCN(C(=O)c3ccco3)CC2)c2c3c(sc2n1)CCCC3`: the EC50 was > 35 µM (inactive).
On to `Cc1nc2ccccc2c(=O)n1/N=C/c1ccc2ccccc2c1O`, for which the EC50 was 22.2 µM.
On to `Cc1ccc(N(C)S(=O)(=O)c2ccc(-c3cc(C)no3)s2)cc1`, for which the EC50 is > 35 µM (inactive).
Consider `O=C(CCCc1ccccc1)Nc1ccccn1`, for which the EC50 was > 35 µM (inactive).
Turning to `CN(CC(=O)Nc1ccc(S(=O)(=O)N2CCCC2)cc1)CC(=O)Nc1cccc(F)c1`, the EC50 is > 35 µM (inactive).
On to `COc1cccc(C(=O)CN2C(=O)C(C)(C)Oc3ccc(C(=O)N4CCOCC4)cc32)c1`, for which the EC50 was > 35 µM (inactive).
For the compound `COc1ccc(NC(=S)NCc2cccnc2)cc1`, the EC50 is > 35 µM (inactive).
For `O=C(N/N=C/c1cc2cc3c(cc2nc1Cl)OCO3)c1ccncc1`, the EC50 is > 35 µM (inactive).
Take `O=C(CCc1ccccc1)NC(c1cccs1)c1cc(Cl)c2cccnc2c1O` (configuration not stated): the EC50 is 35.2 µM.
As to `CNC(=O)C1CC(=O)N(c2ccc(OCC(=O)N3CCCC3)cc2)C1` (configuration not stated), the EC50 was > 35 µM (inactive).
With `COc1ccc2cc3c(N)nn(C(=O)Cc4c[nH]c5ccccc45)c3nc2c1` the figure was > 35 µM (inactive); with `CCOc1cc(/C=N/NC(=O)c2c(-c3ccccc3)noc2C)ccc1O`, > 35 µM (inactive); with `CCOc1ccc(NC(=O)CSc2nnc(Cn3cnc4ccccc43)n2C)cc1`, > 35 µM (inactive).
On to `C/C(=N\NC(=O)Cc1ccc(Br)cc1)c1cccnc1`, for which the EC50 was > 35 µM (inactive).
With `CC1CN/C(=C\C(=O)c2ccc(Br)cc2)C(=O)N1` (configuration not stated) the figure was > 35 µM (inactive); with `CC(=O)c1cccc(NC(=O)CSC(=O)c2ccccc2)c1`, > 35 µM (inactive); with `O=C(N/N=C/c1cc(Br)ccc1O)C(c1ccncc1)N1CCOCC1` (configuration not stated), > 35 µM (inactive).
Regarding `O=C(c1ccc(-c2nnc(-c3ccccc3)o2)cc1)N1CCCCCC1`, the EC50 is > 35 µM (inactive).
As to `CCOc1cccc(/C=N/Nc2ccc(S(=O)(=O)N(CC)CC)cn2)c1O`, the EC50 was 3.59 µM.
Consider `Oc1c(C(Nc2ccccn2)c2ccccn2)ccc2cccnc12` (configuration not stated), for which the EC50 is 3.98 µM.
Turning to `CCN(CC)S(=O)(=O)c1ccc(N/N=C(\C)c2ccc(OC)cc2O)nc1`, the EC50 is 7.86 µM.
Turning to `CCn1cc(C(=O)NCC(OC)OC)c(=O)c2cc(S(=O)(=O)N3CCC(C)CC3)ccc21`, the EC50 was > 35 µM (inactive).
Regarding `COc1ccc(C(=O)NCCc2nc3cc([N+](=O)[O-])ccc3n2C)cc1`, the EC50 is > 35 µM (inactive).
In the case of `O=C(NC(c1ccccc1)c1ccccc1)C1CCCO1` (configuration not stated), the EC50 was > 35 µM (inactive).
For the compound `CCCCC(=O)NC(c1ccccc1OC)c1ccc2cccnc2c1O` (configuration not stated), the EC50 was 6.81 µM.
`Cc1ccc(Nc2c(-c3ccccn3)nc3ccc(C)cn23)cc1`: the EC50 was 6.14 µM.
As for `CCCn1c(SCC(=O)N2CCc3ccccc3C2)nc2c1c(=O)n(C)c(=O)n2C`, the EC50 is > 35 µM (inactive).
Consider `NC(=O)c1sc2nccc(Nc3ccccc3)c2c1N`, for which the EC50 was > 35 µM (inactive).
As for `CCOC(=O)CNC(=O)CSc1nnc(Cn2cnc3ccccc32)n1C`, the EC50 was > 35 µM (inactive).
In the case of `Cc1cc2ccc3ccccc3c2cc1CN(C)C`, the EC50 was > 35 µM (inactive).
With `CC(=O)c1cccc(NC(=O)CN(C)S(=O)(=O)c2cccc3nsnc23)c1` the figure was > 35 µM (inactive); with `COc1cccc(/C=N/NC(=O)c2c(C)nc3ccc(Br)cn23)c1O`, 5.52 µM; with `CN(c1cccc(Cl)c1)S(=O)(=O)c1cccc(C(=O)Nc2nc3ccccc3[nH]2)c1`, > 35 µM (inactive).
For `CC(OC(=O)c1ncc(Cl)c(Cl)c1Cl)C(=O)NC1(C#N)CCCCC1` (configuration not stated) the value was 17.4 µM; for `O=C(NCc1cccs1)C1CC(=O)N(C2CCCC2)C1` (configuration not stated), > 35 µM (inactive); for `CCN(C(=O)CSc1ncn[nH]1)C1CCCCC1`, > 35 µM (inactive).
For `Cc1ccc(/C=N/NC(=O)c2c(-c3ccccc3)noc2C)c(O)c1` the value was 6.81 µM; for `CCC/C(=N/NC(=O)c1cccc(Cl)c1)c1ccccc1`, > 35 µM (inactive).
For the compound `COc1cc(C(=O)Oc2ccccc2/C=N/NC(=O)c2ccc(C)cc2)cc(OC)c1OC`, the EC50 is 13.8 µM.
On to `O=C(CN1CCCc2ccccc21)N/N=C/c1c(O)ccc2ccccc12`, for which the EC50 is 36.5 µM.
As for `O=C(Nc1nc2c(F)cc(F)cc2s1)c1ccccn1`, the EC50 was 5.5 µM.
With `CN(C1CCCC1)C1CCN(C(=S)Nc2cc(F)cc(F)c2)CC1` the figure was > 35 µM (inactive); with `CC1SC(=NC(=O)c2ccncc2)NC1=O` (configuration not stated), > 35 µM (inactive).
Consider `CC(=O)NC(c1ccc(C(C)C)cc1)c1ccc2cccnc2c1O` (configuration not stated), for which the EC50 is 1.33 µM.
In the case of `CCCCc1nnc(NC(=O)c2ccc3[nH]c(=O)c(=O)[nH]c3c2)s1`, the EC50 was > 35 µM (inactive).
In the case of `CCN(CC)c1ccc(NC(=O)CSc2nc3nc(C)cc(C)c3c(=O)[nH]2)cc1`, the EC50 was > 35 µM (inactive).
With `O=[N+]([O-])c1cccc(/C=C/c2ccc3cccc(O)c3n2)c1` the figure was 33.9 µM; with `Cn1nnc2cc(C(=O)N3CCC(c4ccccc4)C3)ccc21` (configuration not stated), > 35 µM (inactive).
Turning to `Cc1cc(/C=N/N2CCN(C)CC2)c(C)n1-c1ccc(Cl)cc1`, the EC50 was > 35 µM (inactive).
For the compound `Oc1ccccc1/C=N/Nc1nc2ccccc2o1`, the EC50 was 8.18 µM.
For `COc1nccc(C(F)(F)F)c1C(=O)NC(=O)Nc1ccccc1` the value was > 35 µM (inactive); for `O=C(N/N=C/c1ccc(O)c(O)c1O)/C(=C/c1ccc([N+](=O)[O-])cc1)NC(=O)c1ccccc1`, > 35 µM (inactive); for `COc1ccc(NC(=S)c2ccc(N(C)C)cc2)cc1`, > 35 µM (inactive).
`O=C(O)c1ccc2cccc(O)c2n1`: the EC50 is > 35 µM (inactive).
In the case of `O=C(NS(=O)(=O)c1ccc2c(c1)OCCO2)c1ccccc1`, the EC50 was > 35 µM (inactive).
Turning to `Cc1ccccc1NC(=O)c1ccccc1O`, the EC50 was > 35 µM (inactive).
For the compound `Cc1ccc(/C=C(\C#N)c2nn(-c3ccccc3)c(N)c2C#N)cc1`, the EC50 was > 35 µM (inactive).
With `CC(=O)c1cccc(NS(=O)(=O)c2ccc(-c3cc(C)no3)s2)c1` the figure was > 35 µM (inactive); with `Cc1cc(OCC(=O)Nc2ccc3c(c2)OCCO3)cc(C)c1Cl`, > 35 µM (inactive); with `CCC(C)NCCOc1ccc(C)cc1[N+](=O)[O-]` (configuration not stated), > 35 µM (inactive).
As to `O=C(N/N=C(\c1ccccc1)c1ccccn1)c1ccccc1Cl`, the EC50 is 11.2 µM.
Turning to `C(=N\Nc1nc2ccccc2[nH]1)/c1cccc2cccnc12`, the EC50 is 12 µM.
With `CCOC(=O)N1CCN(c2ccc(Cl)c(Cl)c2)CC1` the figure was > 35 µM (inactive); with `C=CCc1cccc(/C=N/NC(=O)c2ccc3nc[nH]c3c2)c1O`, 34.6 µM.
As to `Cn1cc(CN2CCC(C(=O)Nc3cccc(-c4cscn4)c3)CC2)cn1`, the EC50 is > 35 µM (inactive).
`CCN(CC)CCOc1ccc2c(c1)C(=NO)c1cc(OCCN(CC)CC)ccc1-2`: the EC50 was > 35 µM (inactive).
For `CCCCCC(=O)NNC(=S)NC(=O)c1cccc([N+](=O)[O-])c1` the value was > 35 µM (inactive); for `CCCCn1c(=O)c2c(O)cc(=O)oc2c2ccccc21`, > 35 µM (inactive).
As for `CN(C)c1nc(-c2ccccn2)nnc1-c1ccccc1`, the EC50 is 6.68 µM.
In the case of `Cn1ncc(Br)c1NC(=O)CSc1ccc(Cl)cc1`, the EC50 was > 35 µM (inactive).
Regarding `CCN(CCN(C)C)C(=O)C1CCN(S(=O)(=O)c2c(C)noc2/C=C/c2ccccc2F)CC1`, the EC50 was 10.4 µM.
Turning to `Cc1[nH]n(-c2ccccc2)c(=O)c1N=Nc1ccc2c(c1)OCCO2`, the EC50 is > 35 µM (inactive).
`CCC(=O)NC(=S)Nc1ccc(NC(=O)c2cccc([N+](=O)[O-])c2C)cc1`: the EC50 is > 35 µM (inactive).
As to `C[C@@H]1O[C@@H](OC[C@H]2O[C@@H](Oc3c(-c4ccc(O)cc4)oc4cc(O)cc(O)c4c3=O)[C@H](O)[C@@H](O)[C@@H]2O)[C@H](O)[C@H](O)[C@H]1O`, the EC50 was > 35 µM (inactive).
As for `O=C1CC(Nc2ccccc2)C(=O)N1Cc1ccccc1` (configuration not stated), the EC50 was > 35 µM (inactive).
As for `O=C1N/C(=C/c2cccs2)C(=O)N1Cc1ccc(Br)cc1`, the EC50 was > 35 µM (inactive).
With `Cc1noc(C)c1COC(=O)C1CC(O)CN1S(=O)(=O)c1ccc(Cl)cc1` (configuration not stated), the EC50 was > 35 µM (inactive).
As to `O=C(Nc1ncc2c(n1)CC(c1ccco1)CC2=O)c1ccccc1` (configuration not stated), the EC50 was > 35 µM (inactive).
